Key:
[1] = test system: N2a cells; test: LC3 puncta and tfLC3 autophagy flux imaging in N2a cells; format: cell-based, mouse; settings: N2a cells transfected with tfLC3, 12 hours
Experimental: N2a cells are treated with E4 (1 μM) in the presence or absence of CQ for 12 hours. The cells are fixed and stained with LC3 antibody (red) and DAPI (blue). Representative cells are then selected and photographed under a DeltaVision Deconvolution Microscope (GE Healthcare).
N2a cells are transiently transfected with mRFP-GFP-LC3 (tfLC3) plasmid and then treated with E4 (1 μM) or CQ (1 μM) for 12 hours. Representative cells are then selected and photographed under a DeltaVision Deconvolution Microscope (GE Healthcare).
After transiently knockdown the expression of TFEB, N2a cells are treated with E4 (1 μM) for 12 hours, the cells were then stained with LC3 antibody (red) and DAPI (blue).
Cells are seeded on coverslips placed in 24-well plates. For autophagy flux assay, cells are transfected with tfLC3 plasmid for 24 hours and then treated with the indicated compounds. For other assays, at the end drug treatment, slices are fixed with 3.7% paraformaldehyde, permeabilized in 0.2% Triton X-100 and blocked with 5% BSA. After blocking, the slices are stained with anti-TFEB (1:200) or anti-LC3 (1:500) antibodies overnight at 4° C. […] Cells are visualized using the Eclipse 80i fluorescence microscope (Nikon Instruments Inc.) or the DeltaVision Deconvolution Microscope (GE Healthcare).

[2] = target: T1, 3×Flag-TFEB (Homo sapiens, UniProt P19484); test: Nuclear translocation of Flag-TFEB in Hela cells stably expressing 3×Flag-TFEB (immunostaining, western blot); format: cell-based; settings: analogs 1 μM, curcumin 10 μM, 12 h, Torin 1 1 μM, 2 h
T1 construct: expressed in transfected cells
T1 sequence (P19484 1-476): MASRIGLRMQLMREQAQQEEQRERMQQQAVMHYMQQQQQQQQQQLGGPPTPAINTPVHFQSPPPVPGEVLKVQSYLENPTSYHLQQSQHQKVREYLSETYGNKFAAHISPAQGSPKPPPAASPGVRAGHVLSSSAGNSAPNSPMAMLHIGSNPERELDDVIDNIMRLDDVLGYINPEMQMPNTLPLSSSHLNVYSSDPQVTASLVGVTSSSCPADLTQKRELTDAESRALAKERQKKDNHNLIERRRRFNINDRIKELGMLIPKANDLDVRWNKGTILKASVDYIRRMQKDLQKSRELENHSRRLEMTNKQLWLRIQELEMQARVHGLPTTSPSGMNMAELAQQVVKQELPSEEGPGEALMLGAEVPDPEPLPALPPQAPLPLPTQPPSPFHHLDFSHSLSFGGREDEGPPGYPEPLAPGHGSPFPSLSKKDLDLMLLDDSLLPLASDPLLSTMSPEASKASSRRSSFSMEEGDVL
Experimental: Cells were treated with curcumin (Cur, 10 μM), A2, B3 and C1 (1 μM) for 12 h. […] Data is quantified by ImageJ software and is presented as mean±SD of three replicates for each treatment conditions. At least 1000 cells are analyzed in each treatment group. *p<0.05 vs. the control (0.1% DMSO). FIG. 4C is a western blot showing the expression of endogenous TFEB. […] Data are presented as the mean±SD from three independent experiments. *p<0.05 vs. the control (0.1% DMSO). FIG. 4E is fluorescence images showing expression of 3×Flag-TFEB in Hela cells having treated with Cur (10 μM), A2, B3 and C1 (1 μM) for 12 h. Torin 1 (1 μM) treatment for 2 h is used as a positive control. Cells were fixed and stained with anti-Flag antibody. […] FIG. 4G is the western blot showing the expression of Flag-tagged TFEB in the cytosolic (Cyt.) and nuclear (Nuc.) fractions. ACTB and H3F3A (H3 histone, family 3A) are used as loading control of cytoplasmic and nuclear fraction, respectively. FIG. 4H is showing the relative intensity of TFEB in the cytosolic and nuclear fractions. Data are presented as the mean±SD from three independent experiments. *p<0.05 vs. the control (0.1% DMSO).
HeLa cells stably expressing 3×Flag-TFEB are treated with curcumin analogs E2, E3 and E4 (1 μM) for 12 hours. Torin 1 (1 μM) treatment for 2 hours is used as a positive control. Cells are fixed and stained with anti-Flag antibody (red) and DAPI (blue) (FIG. 18A). TFEB translocate into nucleus are quantified (FIG. 18B). Quantification data are presented as mean±SD of three replicates in a representative experiment. At least 500 cells are analyzed in each treatment group.
HeLa cells stably expressing 3×Flag-TFEB are treated with curcumin analogs E2, E3 and E4 (1 μM) for 12 hours. Torin 1 (1 μM) treatment for 2 hours is used as a positive control. The expression of TFEB in the cytosolic (Cyt.) and nuclear (Nuc.) fractions are determined by western blotting (FIG. 19A) and quantified (FIG. 19B). TUBB (β-tubulin) and H3F3A (H3 histone, family 3A) are used as loading control of cytoplasmic and nuclear fraction respectively. Quantification data are presented as the mean±SD from three independent experiments. *p<0.05 vs. the control (0.1% DMSO).
N2a, Hela and Hela cells stably expressing 3×-Flag-TFEB are cultured in DMEM supplemented with 10% FBS. SH-SY5Y cells are cultured in DMEM/F12 supplemented with 10% FBS. For drug treatment, the full medium is replaced by fresh Opti-MEM I and then the compounds (in 0.1% DMSO) are added to the cells and incubated for 12 h. Inducible PC12 cells overexpressing SNCA (WT and A53T) (a kind gift from Prof. David C. Rubinsztein at Cambridge University) are grown in DMEM supplemented with 10% horse serum, 5% FBS, 50 μg/ml G418, and 150 μg/ml hygromycin B at 37° C., 10% CO2. Cells are treated with 2 μg/ml doxycycline (Dox) for 24 h to induce SNCA expression. The full medium is changed to Opti-MEM I containing the testing compounds for another 48 h.
Cells are lysed on ice in 1× Lysis Buffer (9803, Life Technologies) with complete protease inhibitor mixture (04693124001, Roche Applied Science). Animal tissues are homogenized in nine volumes of ice-cold PBS supplemented with protease inhibitors. Cytosolic and nuclear fractions are isolated using protocols similar to those described previously. Anti-Flag or TFEB antibody is added to the whole cell lysates and Dynabeads® Protein G (10003D, Life Technologies) is used for immunoprecipitation. Proteins are separated by 10-15% SDS-PAGE, transferred, and blotted with the antibodies described. The blots are then incubated with secondary antibodies or the Clean-Blot IP Detection Reagent (21230, Thermo Scientific) at room temperature for 1 h. The protein signals are detected by ECL kit (32106, Pierce) and quantified using ImageJ software.
Cells are seeded on coverslips placed in 24-well plates. […]

Row | SMILES | mRFP-GFP-LC3 (tfLC3) puncta (autophagy flux, autolysosome formation) [1] | nuclear translocation of Flag-TFEB [2]
1 | CCN(CC)CCCC(C)Nc1ccnc2cc(Cl)ccc12 (centres unmarked) [CQ, chloroquine, reference compound] | induced accumulation and colocalization of both GFP and mRFP fluorescence | –
2 | CCC(=O)N1CCN(c2ccc(-n3c(=O)ccc4cnc5ccc(-c6cnc7ccccc7c6)cc5c43)cc2C(F)(F)F)CC1 [Torin 1, reference compound] | – | significantly promotes

Reference: patent US9540299B2, “MTOR-independent activator of TFEB for autophagy enhancement and uses thereof” (Hong Kong Baptist University, priority 2015, dated 2017)
